We go through 11 compounds from US8957082B2, “Tetrahydropyrrolopyrimidinediones and their use in therapy” (Chiesi Farmaceutici S.p.A, priority 2006, dated 2015).

The target in the first assay is T1, human neutrophil elastase (HNE) (Homo sapiens, UniProt P08246).
T1 sequence (P08246 30-267): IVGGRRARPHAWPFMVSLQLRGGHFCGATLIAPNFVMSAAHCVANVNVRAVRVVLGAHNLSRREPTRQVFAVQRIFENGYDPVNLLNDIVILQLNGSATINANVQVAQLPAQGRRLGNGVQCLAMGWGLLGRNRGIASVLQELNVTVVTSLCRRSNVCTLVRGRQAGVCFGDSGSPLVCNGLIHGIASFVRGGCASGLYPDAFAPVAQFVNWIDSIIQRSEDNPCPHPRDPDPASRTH
Kind of assay: HNE induced lung haemorrhage in the rat. Type of assay: in vivo. To be noted: male Sprague Dawley rats, compound dosed locally to the lung (i.t. or i.n.) before HNE, blood in BALF one hour post HNE challenge. From the text:
HNE Induced Lung Haemorrhage in the Rat
Instillation of human neutrophil elastase (HNE) into rat lung causes acute lung damage. The extent of this injury can be assessed by measuring lung haemorrhage. Male Sprague Dawley rats (175-220 g) were obtained from Harlan UK Ltd., full barrier-bred and certified free from specified micro-organisms on receipt. Animals were weighed and randomly assigned to treatment groups (7-12 animals per group).
The vehicle used was 1% DMSO/Saline. Inhibitors were dissolved in 1% DMSO before the addition of 0.9% saline.
Animals in each study used to determine the efficacy of the elastase inhibitors delivered locally to the lung by a variety of routes. Rats were anaesthetised with the inhaled anaesthetic isoflurane (4%) when the dose was given from 30 minutes to 6 h prior to human neutrophil elastase ([…]) administration or terminally anaesthetised with hypnorm:hypnovel:water (1.5:1:2 at 2.7 ml/kg) when the predose was given at less than 30 minutes prior to HNE administration and dosed either intratracheally (i.t.) by transoral administration using a Penn Century microsprayer or intranasally (i.n.) by dropping the fluid on to the nares. Animals either received vehicle or compound at a dose volume of 0.5 ml/kg.
Animals that had been allowed to recover after dosing were terminally anaesthetised with hypnorm:hypnovel:water (1.5:1:2 at 2.7 ml/kg). Once sufficiently anaesthetised, HNE (600 units/ml) or sterile saline was administered by transoral tracheal instillation at a volume of 100 μl using a Penn Century microsprayer. Animals were kept warm in a temperature controlled box and given top up doses of anaesthetic as required to ensure continuous anaesthesia until termination.
Animals were sacrificed (0.5 ml to 1 ml sodium pentobarbitone) one hour post HNE challenge. The trachea was exposed and a small incision made between two tracheal rings allowing a cannula (10 gauge, O.D. 2-10 mm, Portex Ltd.) to be inserted approximately 2 cm into the trachea towards the lung. This was secured into place with a cotton ligature. The lungs were then lavaged (BAL) three times with fresh 4 ml aliquots of heparinised (10 units/ml) phosphate buffered saline (PBS). The resultant BALF was kept on ice until it was centrifuged.
The BALF was centrifuged at 1000 r.p.m. for 10 minutes in a centrifuge cooled to between 4 and 10° C. The supernatant was discarded and the cell pellet resuspended in 1 ml 0.1% CETAB/PBS to lyse the cells. Cell lysates were frozen until spectrophotometric analysis for blood content could be made. Standards were prepared by making solutions of whole rat blood in 0.1% CETAB/PBS.
Once defrosted 100 μl of each lysed cell suspension was placed into a separate well of a 96 well flat bottomed plate. All samples were tested in duplicate and 100 μl 0.1% CETAB/PBS was included on the plate as a blank. The OD of the contents of each well was measured at 415 nm using a spectramax 250 (Molecular devices).
A standard curve was constructed by measuring the OD (at 415 nm) of different concentrations of blood in 0.1% CETAB/PBS (30, 10, 7, 3, 1, 0.3, 0.1 μl/ml).
The amount of blood in each experimental sample was calculated by comparison to the standard curve. Data were then analysed as below:
1) The mean OD for duplicates was calculated
2) The value for the blank was subtracted from the value for all other samples
3) Data were assessed to evaluate the normality of distribution.
Consider `N#Cc1ccc([C@H]2NC(=O)N(c3cccc(C(F)(F)F)c3)C3=C2C(=O)N(CCCNCCCN2CC4=C(C2=O)[C@@H](c2ccc(C#N)cc2)NC(=O)N4c2cccc(C(F)(F)F)c2)C3)cc1.O=CO` [Example 18], for which the “reducing the quantity of blood haemorrhaged relative to control” value is given as “effective in reducing the quantity of blood haemorrhaged”.

As for `C[N+](C)(CCCN1CC2=C(C1=O)[C@@H](c1ccc(C#N)cc1)NC(=O)N2c1cccc(C(F)(F)F)c1)CCCN1CC2=C(C1=O)[C@@H](c1ccc(C#N)cc1)NC(=O)N2c1cccc(C(F)(F)F)c1.O=C[O-]` [Example 59], the “reducing the quantity of blood haemorrhaged relative to control” value is “effective in reducing the quantity of blood haemorrhaged”.

Turning to `C[N+](CCCN1CC2=C(C1=O)[C@@H](c1ccc(C#N)cc1)NC(=O)N2c1cccc(C(F)(F)F)c1)(CCCN1CC2=C(C1=O)[C@@H](c1ccc(C#N)cc1)NC(=O)N2c1cccc(C(F)(F)F)c1)CC(=O)[O-]` [Example 49], the “reducing the quantity of blood haemorrhaged relative to control” value is “effective in reducing the quantity of blood haemorrhaged”.

Turning to `CCN1CC2=C(C1=O)[C@@H](c1ccc(C#N)cc1)N(CC(=O)NCCNC(=N)NCCNC(=O)CN1C(=O)N(c3cccc(C(F)(F)F)c3)C3=C(C(=O)N(CC)C3)[C@H]1c1ccc(C#N)cc1)C(=O)N2c1cccc(C(F)(F)F)c1` [Example 30], the “reducing the quantity of blood haemorrhaged relative to control” value is on record as “effective in reducing the quantity of blood haemorrhaged”.

On to `C[N+](C)(CCCCN1CC2=C(C1=O)[C@@H](c1ccc(C#N)cc1)NC(=O)N2c1cccc(C(F)(F)F)c1)CCCOc1ccccc1.[Br-]` [Example 61], for which the “reducing the quantity of blood haemorrhaged relative to control” value was “effective in reducing the quantity of blood haemorrhaged”.

Consider `C[N+](C)(CCCN1CC2=C(C1=O)[C@@H](c1ccc(C#N)cc1)N(CC(=O)O)C(=O)N2c1cccc(C(F)(F)F)c1)CCCN1CC2=C(C1=O)[C@@H](c1ccc(C#N)cc1)N(CC(=O)O)C(=O)N2c1cccc(C(F)(F)F)c1.O=C([O-])C(F)(F)F` [Example 41], for which the “reducing the quantity of blood haemorrhaged relative to control” value was “effective in reducing the quantity of blood haemorrhaged”.

As for `C[N+](C)(CCCN1CC2=C(C1=O)[C@@H](c1ccc(C#N)cc1)NC(=O)N2c1cccc(C(F)(F)F)c1)CCCN1CC2=C(C1=O)[C@@H](c1ccc(C#N)cc1)NC(=O)N2c1cccc(C(F)(F)F)c1.[I-]` [Example 32], the “reducing the quantity of blood haemorrhaged relative to control” value is “effective in reducing the quantity of blood haemorrhaged”.

As to `N#Cc1ccc([C@H]2NC(=O)N(c3cccc(C(F)(F)F)c3)C3=C2C(=O)N(CCN2CCN(CCN4CC5=C(C4=O)[C@@H](c4ccc(C#N)cc4)NC(=O)N5c4cccc(C(F)(F)F)c4)C2=N)C3)cc1` [Example 43], the “reducing the quantity of blood haemorrhaged relative to control” value is listed as “effective in reducing the quantity of blood haemorrhaged”.

On to `CN(CCCN1CC2=C(C1=O)[C@@H](c1ccc(C#N)cc1)NC(=O)N2c1cccc(C(F)(F)F)c1)CCCN1CC2=C(C1=O)[C@@H](c1ccc(C#N)cc1)NC(=O)N2c1cccc(C(F)(F)F)c1` [Example 17], for which the “reducing the quantity of blood haemorrhaged relative to control” value is “effective in reducing the quantity of blood haemorrhaged”.

Turning to `C[N+](CCCCN1CC2=C(C1=O)[C@@H](c1ccc(C#N)cc1)NC(=O)N2c1cccc(C(F)(F)F)c1)(CCCOc1ccccc1)CCCOc1ccccc1.O=C[O-]` [Example 64], the “reducing the quantity of blood haemorrhaged relative to control” value is given as “effective in reducing the quantity of blood haemorrhaged”.

Still in this assay, the particulars now being: rat, 30 mg/kg it, 1 hour prior to HNE; statistically significant.
With `C[N+](C)(CCCN1CC2=C(C1=O)[C@@H](c1ccc(C#N)cc1)NC(=O)N2c1cccc(C(F)(F)F)c1)CCCN1CC2=C(C1=O)[C@@H](c1ccc(C#N)cc1)NC(=O)N2c1cccc(C(F)(F)F)c1.[I-]` [Example 32], the “reduction in haemorrhage relative to control” value worked out at 67%.

The target in the next assay is T2, human leukocyte elastase (HNE) (Homo sapiens, UniProt P08246).
T2 construct: purchased Sigma E8140
T2 sequence (P08246 30-247 limits assumed): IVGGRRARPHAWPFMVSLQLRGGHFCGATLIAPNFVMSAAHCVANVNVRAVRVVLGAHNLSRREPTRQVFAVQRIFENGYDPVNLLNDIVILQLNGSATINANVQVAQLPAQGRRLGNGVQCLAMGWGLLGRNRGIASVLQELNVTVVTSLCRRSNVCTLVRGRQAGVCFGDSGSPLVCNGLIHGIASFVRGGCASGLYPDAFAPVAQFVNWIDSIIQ
Kind of assay: HNE inhibitory activity (fluorescent peptide substrate / fluorescently labelled elastin assays). The format is biochemical. To be noted: which of the two substrate assays is not stated. The procedure:
Compounds of the invention were tested for their HNE inhibitory activity.
Fluorescent Peptide Substrate
Assays were performed in 96-well plates at a total assay volume of 100 μl. The final concentration of the enzyme (human leukocyte elastase, Sigma E8140) was 0.00036 units/well. A peptide substrate (MeO-Suc-Ala-Ala-Pro-ValAMC, Calbiochem #324745) was used, at the final concentration of 100 μM. The final concentration of DMSO was 1% in the assay buffer (0.05M Tris.HCl, pH 7.5, 0.1M NaCl; 0.1M CaCl2; 0.0005% brij-35).
The enzymatic reaction was started by adding the enzyme. The enzymatic reaction was performed at RT and after 30 mins stopped by adding 50 μl soybean trypsin inhibitor (Sigma T-9003) at a final concentration of 50 μg/well. Fluorescence was read on the FLEXstation (Molecular Devices) using 380 nm excitation and 460 nm emission filters. […] The results are means of two independent experiments, each performed in duplicate.
Using Fluorescently Labelled Elastin
Assays were performed in 96-well plate at a total assay volume of 100 μl. The final concentration of the enzyme (human leukocyte elastase, Sigma E8140) was 0.002 units/well. […]
The enzymatic reaction was started by adding the enzyme. The enzymatic reaction was performed at RT and read after 120 minutes. Fluorescence was read on the FLEXstation (Molecular Devices) using 485 nm excitation and 530 nm emission filters. […]
Broadly, the IC50 is the concentration that inhibits the measured activity by half. As to `CN(CCCN1CC2=C(C1=O)[C@@H](c1ccc(I)cc1)NC(=O)N2c1cccc(C(F)(F)F)c1)CCCN1CC2=C(C1=O)[C@@H](c1ccc(I)cc1)NC(=O)N2c1cccc(C(F)(F)F)c1` [Example 23], the IC50 is 0.05 to 0.5 µM.
